Reference: patent US20230085307A1, “PYRIDAZINONE COMPOUND AND HERBICIDE” (NISSAN CHEMICAL CORPORATION, priority 2019, published 2023)

Key:
redroot pigweed = test: Test Example 5: herbicidal effect by foliage application, plastic box (Table 20, symbol N); format: in vivo, redroot pigweed (Amaranthus retroflexus); details: foliage application, AAH 320 g/ha, three weeks after application
Summary of the method: (§1)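 Foliar spray test: emulsion formulation diluted in water to a set application rate, sprayed onto 14-day-old plants raised in diluvial soil at 25° C to 30° C under glass. Both herbicidal effect and crop effect rated visually three weeks later.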

southern crabgrass = test: Test Example 5: herbicidal effect by foliage application, plastic box (Table 20, symbol F); format: in vivo, southern crabgrass (Digitaria ciliaris); details: foliage application, AAH 320 g/ha, three weeks after application
Summary of the method: as §1

blackgrass = test: Test Example 5: herbicidal effect by foliage application, plastic box (Table 20, symbol J); format: in vivo, blackgrass (Alopecurus myosuroides); details: foliage application, AAH 320 g/ha, three weeks after application
Summary of the method: as §1

late watergrass = test: Test Example 1: herbicidal activity, application before weed generation under submerged conditions (Table 16, symbol A); format: in vivo, late watergrass (Echinochloa oryzicola); details: 320 g/ha applied herbicide
Summary of the method: (§2)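 Alluvial soil was flooded to 4 cm depth, weed seeds were sown mixed and 2.5-leaf rice seedlings were transplanted. On sowing day, the compound's emulsion, diluted in water to a set dose, was applied to the water surface. Plants grew at 25–30 °C and were scored 0–5 after three weeks.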

barnyard grass [1] = test: Test Example 3: herbicidal effect by foliage application, Wagner pot (Table 18, symbol H); format: in vivo, barnyard grass (Echinochloa crus-galli); details: 320 g/ha
Summary of the method: (§3)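 Plants were sown in alluvial soil held under 0.1–0.5 cm standing water and grown 14 days in a greenhouse at 25–30 °C. An emulsifiable formulation, water-diluted to the set dose, was then sprayed onto the foliage, and effects were scored three weeks later using previously defined criteria.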

Japanese bulrush = test: Test Example 1: herbicidal activity, application before weed generation under submerged conditions (Table 16, symbol B); format: in vivo, Japanese bulrush (Schoenoplectus juncoides); details: 320 g/ha applied herbicide
Summary of the method: as §2

green foxtail = test: Test Example 5: herbicidal effect by foliage application, plastic box (Table 20, symbol G); format: in vivo, green foxtail (Setaria viridis); details: foliage application, AAH 320 g/ha, three weeks after application
Summary of the method: as §1

windgrass = test: Test Example 5: herbicidal effect by foliage application, plastic box (Table 20, symbol L); format: in vivo, windgrass (Apera spica-venti); details: foliage application, AAH 320 g/ha, three weeks after application
Summary of the method: as §1

Italian ryegrass = test: Test Example 5: herbicidal effect by foliage application, plastic box (Table 20, symbol K); format: in vivo, Italian ryegrass (Lolium multiflorum); details: foliage application, AAH 320 g/ha, three weeks after application
Summary of the method: as §1

chickweed = test: Test Example 5: herbicidal effect by foliage application, plastic box (Table 20, symbol P); format: in vivo, common chickweed (Stellaria media); details: foliage application, AAH 320 g/ha, three weeks after application
Summary of the method: as §1

persian speedwell = test: Test Example 5: herbicidal effect by foliage application, plastic box (Table 20, symbol R); format: in vivo, Persian speedwell (Veronica persica); details: foliage application, AAH 320 g/ha, three weeks after application
Summary of the method: as §1

rice flat sedge = test: Test Example 3: herbicidal effect by foliage application, Wagner pot (Table 18, symbol E); format: in vivo, rice flat sedge (Cyperus iria); details: 320 g/ha
Summary of the method: as §3

lambsquarters = test: Test Example 5: herbicidal effect by foliage application, plastic box (Table 20, symbol O); format: in vivo, lambsquarters (Chenopodium album); details: foliage application, AAH 320 g/ha, three weeks after application
Summary of the method: as §1

wild oat = test: Test Example 5: herbicidal effect by foliage application, plastic box (Table 20, symbol I); format: in vivo, wild oat (Avena fatua); details: foliage application, AAH 320 g/ha, three weeks after application
Summary of the method: as §1

velvetleaf = test: Test Example 5: herbicidal effect by foliage application, plastic box (Table 20, symbol M); format: in vivo, velvetleaf (Abutilon theophrasti); details: foliage application, AAH 320 g/ha, three weeks after application
Summary of the method: as §1

Chinese sprangletop = test: Test Example 3: herbicidal effect by foliage application, Wagner pot (Table 18, symbol D); format: in vivo, chinese sprangletop (Leptochloa chinensis); details: 320 g/ha
Summary of the method: as §3

barnyard grass [2] = test: Test Example 5: herbicidal effect by foliage application, plastic box (Table 20, symbol H); format: in vivo, barnyard grass (Echinochloa crus-galli); details: foliage application, AAH 320 g/ha, three weeks after application
Summary of the method: as §1

oval-leafed pondweed = test: Test Example 1: herbicidal activity, application before weed generation under submerged conditions (Table 16, symbol C); format: in vivo, oval-leafed pondweed (Monochoria vaginalis); details: 320 g/ha applied herbicide
Summary of the method: as §2

| Compound | N: redroot pigweed, herbicidal effect (redroot pigweed) | F: southern crabgrass, herbicidal effect (southern crabgrass) | J: blackgrass, herbicidal effect (blackgrass) | Herbicidal effect on A: late watergrass (grade 0-5) (late watergrass) | herbicidal effect on H (barnyard grass), rating 0-5 (barnyard grass [1]) | Herbicidal effect on B: Japanese bulrush (grade 0-5) (Japanese bulrush) | G: green foxtail, herbicidal effect (green foxtail) | L: windgrass, herbicidal effect (windgrass) | K: Italian ryegrass, herbicidal effect (Italian ryegrass) | P: chickweed, herbicidal effect (chickweed) | R: persian speedwell, herbicidal effect (persian speedwell) | herbicidal effect on E (rice flat sedge), rating 0-5 (rice flat sedge) | O: lambsquarters, herbicidal effect (lambsquarters) | I: wild oat, herbicidal effect (wild oat) | M: velvetleaf, herbicidal effect (velvetleaf) | herbicidal effect on D (Chinese sprangletop), rating 0-5 (Chinese sprangletop) | H: barnyard grass, herbicidal effect (barnyard grass [2]) | Herbicidal effect on C: oval-leafed pondweed (grade 0-5) (oval-leafed pondweed) |
| --- | --- | --- | --- | --- | --- | --- | --- | --- | --- | --- | --- | --- | --- | --- | --- | --- | --- | --- |
| COc1cn(C)nc1-c1sc2ccccc2c1-c1c(O)c(C)nn(C)c1=O [1-105] | 5 (Herbicidal rate of 90% or more (almost completely withered)) | 3 (Herbicidal rate of 40% or more and less than 70%) | 0 (Herbicidal rate of 5% or less (almost no effect)) | 3 (Herbicidal rate of 40% or more and less than 70%) | 4 (Herbicidal rate of 70% or more and less than 90%) | 3 (Herbicidal rate of 40% or more and less than 70%) | 3 (Herbicidal rate of 40% or more and less than 70%) | 4 (Herbicidal rate of 70% or more and less than 90%) | 0 (Herbicidal rate of 5% or less (almost no effect)) | 5 (Herbicidal rate of 90% or more (almost completely withered)) | 4 (Herbicidal rate of 70% or more and less than 90%) | 4 (Herbicidal rate of 70% or more and less than 90%) | 4 (Herbicidal rate of 70% or more and less than 90%) | 3 (Herbicidal rate of 40% or more and less than 70%) | 3 (Herbicidal rate of 40% or more and less than 70%) | 3 (Herbicidal rate of 40% or more and less than 70%) | 1 (Herbicidal rate of 5% or more and less than 20%) | 2 (Herbicidal rate of 20% or more and less than 40%) |
| COc1cccc(Cl)c1-c1sc2ccccc2c1-c1c(O)c(C)nn(C)c1=O [1-159] | 0 (Herbicidal rate of 5% or less (almost no effect)) | 0 (Herbicidal rate of 5% or less (almost no effect)) | 0 (Herbicidal rate of 5% or less (almost no effect)) | 2 (Herbicidal rate of 20% or more and less than 40%) | 2 (Herbicidal rate of 20% or more and less than 40%) | 0 (Herbicidal rate of 5% or less (almost no effect)) | 0 (Herbicidal rate of 5% or less (almost no effect)) | 0 (Herbicidal rate of 5% or less (almost no effect)) | 0 (Herbicidal rate of 5% or less (almost no effect)) | 5 (Herbicidal rate of 90% or more (almost completely withered)) | 5 (Herbicidal rate of 90% or more (almost completely withered)) | 0 (Herbicidal rate of 5% or less (almost no effect)) | 0 (Herbicidal rate of 5% or less (almost no effect)) | 0 (Herbicidal rate of 5% or less (almost no effect)) | 0 (Herbicidal rate of 5% or less (almost no effect)) | 0 (Herbicidal rate of 5% or less (almost no effect)) | 0 (Herbicidal rate of 5% or less (almost no effect)) | 0 (Herbicidal rate of 5% or less (almost no effect)) |
